Reference: PubChem BioAssay (NCI)
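Cells were grown in 96-well plates and exposed to each compound for 48 hours at five concentrations; endpoints were interpolated linearly between bracketing concentrations, or set to the highest concentration if not reached. TGI: total growth inhibition.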

Columns and labels:
Experiment in all cases: NCI tumour cell line growth inhibition, 48 h
[1] = test system: SK-MEL-5 melanoma
[2] = test system: DMS 114 small cell lung
[3] = test system: DU-145 prostate
[4] = test system: OVCAR-4 ovarian
[5] = test system: COLO 205 colon
[6] = test system: IGROV1 ovarian
[7] = test system: ACHN renal
[8] = test system: SNB-19 CNS
[9] = test system: A549 NSCLC
[10] = test system: RXF-631 renal
[11] = test system: XF 498 CNS
[12] = test system: SF-268 CNS
[13] = test system: UO-31 renal
[14] = test system: M14 melanoma
[15] = test system: A498 renal
[16] = test system: U251 CNS
[17] = test system: SK-MEL-2 melanoma
[18] = test system: UACC-257 melanoma
[19] = test system: NCI-H23 lung
[20] = test system: NCI-H460 lung
[21] = test system: SNB-78 CNS
[22] = test system: 786-0 renal
[23] = test system: SF-539 CNS
[24] = test system: OVCAR-8 ovarian
[25] = test system: CAKI-1 renal
[26] = test system: MALME-3M melanoma
[27] = test system: EKVX NSCLC
[28] = test system: DLD-1 colon
[29] = test system: MDA-MB-231 breast
[30] = test system: P388 leukemia
[31] = test system: M19-MEL melanoma
[32] = test system: TK-10 renal
[33] = test system: DMS 273 small cell lung
[34] = test system: MOLT-4 leukemia
[35] = test system: T-47D breast
[36] = test system: HCT-15 colon
[37] = test system: KM12 colon
[38] = test system: NCI-H522 lung
[39] = test system: NCI/ADR-RES ovarian
[40] = test system: SW-620 colon
[41] = test system: SK-OV-3 ovarian
[42] = test system: MDA-N
[43] = test system: RPMI-8226 leukemia
[44] = test system: HT29 colon
[45] = test system: OVCAR-3 ovarian
[46] = test system: HOP-62 NSCLC
[47] = test system: UACC-62 melanoma
[48] = test system: LOX IMVI melanoma
[49] = test system: HOP-92 NSCLC
[50] = test system: MCF7 breast
[51] = test system: K-562 leukemia
[52] = test system: BT-549 breast
[53] = test system: HL-60(TB) leukemia
[54] = test system: HCC-2998 colon
[55] = test system: SK-MEL-28 melanoma
[56] = test system: KM20L2 colon
[57] = test system: SR leukemia
[58] = test system: SNB-75 CNS
[59] = test system: SN12C renal
[60] = test system: OVCAR-5 ovarian
[61] = test system: RXF 393 renal
[62] = test system: SF-295 CNS
[63] = test system: HCT-116 colon
[64] = test system: CCRF-CEM leukemia
[65] = test system: P388/ADR leukemia
[66] = test system: SN12K1 renal
[67] = test system: PC-3 prostate
[68] = test system: HS 578T breast
[69] = test system: NCI-H226 lung
[70] = test system: LXFL 529 NSCLC
[71] = test system: HOP-18 NSCLC
[72] = test system: MDA-MB-435

## O=C(CCBr)N1CCN(C(=O)CCBr)CC1
[1]
  TGI: 149 µM
[2]
  TGI: 140 µM
[3]
  TGI: 496 µM
[4]
  TGI: 181 µM
[5]
  TGI: 225 µM
[6]
  TGI: 245 µM
[7]
  TGI: 316 µM
[8]
  TGI: 198 µM
[9]
  TGI: 140 µM
[10]
  TGI: 134 µM
[11]
  TGI: 133 µM
[12]
  TGI: 153 µM
[13]
  TGI: 293 µM
[14]
  TGI: 131 µM
[15]
  TGI: 165 µM
[16]
  TGI: 114 µM
[17]
  TGI: 221 µM
[18]
  TGI: 246 µM
[19]
  TGI: 150 µM
[20]
  TGI: 113 µM
[21]
  TGI: 295 µM
[22]
  TGI: 191 µM
[23]
  TGI: 168 µM
[24]
  TGI: 246 µM
[25]
  TGI: 168 µM
[26]
  TGI: 206 µM
[27]
  TGI: 212 µM
[28]
  TGI: 202 µM
[29]
  TGI: 242 µM
[30]
  TGI: 293 µM
[31]
  TGI: 252 µM
[32]
  TGI: 488 µM
[33]
  TGI: 168 µM
[34]
  TGI: 215 µM
[35]
  TGI: 232 µM
[36]
  TGI: 222 µM
[37]
  TGI: 181 µM
[38]
  TGI: 146 µM
[39]
  TGI: 221 µM
[40]
  TGI: 218 µM
[41]
  TGI: 212 µM
[42]
  TGI: 225 µM
[43]
  TGI: 394 µM
[44]
  TGI: 280 µM
[45]
  TGI: 218 µM
[46]
  TGI: 155 µM
[47]
  TGI: 73.3 µM
[48]
  TGI: 165 µM
[49]
  TGI: 284 µM
[50]
  TGI: 215 µM
[51]
  TGI: 459 µM
[52]
  TGI: 85.3 µM
[53]
  TGI: 206 µM
[54]
  TGI: 140 µM
[55]
  TGI: 252 µM
[56]
  TGI: 277 µM
[57]
  TGI: 174 µM
[58]
  TGI: 180 µM
[59]
  TGI: 169 µM
[60]
  TGI: 189 µM
[61]
  TGI: 150 µM
[62]
  TGI: 212 µM
[63]
  TGI: 151 µM
[64]
  TGI: 257 µM
[65]
  TGI: 181 µM
[66]
  TGI: 196 µM
[67]
  TGI: 500 µM
[68]
  TGI: 455 µM
[69]
  TGI: 201 µM
[70]
  TGI: 137 µM
[71]
  TGI: 238 µM
[72]
  TGI: 245 µM

## CN(C)CCNC(=O)c1cccc2ccc(-c3ccc(Br)cc3)nc12
[1]
  TGI: 2.92 µM
[2]
  TGI: 9.8 µM
[4]
  TGI: 8.5 µM
[5]
  TGI: 2.54 µM
[6]
  TGI: 13.2 µM
[8]
  TGI: 16.7 µM
[9]
  TGI: 4.29 µM
[11]
  TGI: 6.94 µM
[12]
  TGI: 19.1 µM
[13]
  TGI: 3.99 µM
[15]
  TGI: 5.49 µM
[16]
  TGI: 12.2 µM
[17]
  TGI: 9.25 µM
[18]
  TGI: 10.7 µM
[19]
  TGI: 13.6 µM
[20]
  TGI: 2.77 µM
[21]
  TGI: 22.5 µM
[23]
  TGI: 11.4 µM
[24]
  TGI: 4.76 µM
[25]
  TGI: 7.15 µM
[26]
  TGI: 8.68 µM
[27]
  TGI: 9.08 µM
[28]
  TGI: 10.8 µM
[30]
  TGI: 8.48 µM
[31]
  TGI: 6.15 µM
[33]
  TGI: 5.81 µM
[34]
  TGI: 1.48 µM
[36]
  TGI: 12.5 µM
[37]
  TGI: 15.5 µM
[38]
  TGI: 4.21 µM
[39]
  TGI: 5.89 µM
[40]
  TGI: 5.9 µM
[41]
  TGI: 10.6 µM
[43]
  TGI: 5.93 µM
[44]
  TGI: 7.24 µM
[45]
  TGI: 12.6 µM
[46]
  TGI: 6.09 µM
[47]
  TGI: 3.6 µM
[48]
  TGI: 4.82 µM
[49]
  TGI: 8.43 µM
[50]
  TGI: 13.8 µM
[51]
  TGI: 9.2 µM
[53]
  TGI: 4.2 µM
[54]
  TGI: 6.32 µM
[55]
  TGI: 13.2 µM
[56]
  TGI: 11.5 µM
[58]
  TGI: 10.7 µM
[59]
  TGI: 13.5 µM
[60]
  TGI: 10.2 µM
[61]
  TGI: 13.1 µM
[62]
  TGI: 14.8 µM
[63]
  TGI: 5.13 µM
[64]
  TGI: 7.75 µM
[65]
  TGI: 4.44 µM
[66]
  TGI: 2.63 µM
[69]
  TGI: 4.82 µM
[71]
  TGI: 8.25 µM
